Biological target: Fatty acid-binding protein, heart (Homo sapiens, UniProt P05413)
Sequence (P05413 whole entry): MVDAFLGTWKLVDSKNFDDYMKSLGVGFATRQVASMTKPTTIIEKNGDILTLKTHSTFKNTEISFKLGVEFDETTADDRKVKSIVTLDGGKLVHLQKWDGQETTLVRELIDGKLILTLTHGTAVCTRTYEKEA

IC50 | Compound
> 100 µM | CN(Cc1ccccc1)c1nc(C(F)(F)F)cc(=O)[nH]1
> 100 µM | Oc1cc(C(F)(F)F)nc(NCc2ccc(Cl)cc2)n1

Source: ChEMBL document CHEMBL1137029, “Substituted benzylamino-6-(trifluoromethyl)pyrimidin-4(1H)-ones: a novel class of selective human A-FABP inhibitors” (Bioorg Med Chem Lett, 2004)
